This note sets out measurements from patent US8530513B1, “Pharmaceutical uses of diterpene excavatolide B from a coral or an analogue thereof” (National Sun Yat-Sen University, priority 2012, dated 2013).

Experiment [1] has as its system abdominal skins of female C57BL/6 mice. The experiment can be described thus: TPA-induced edema, H&E-stained skin sections. To be noted: topical 1 mg/site for 6 h after TPA. In kind it is in vivo, mouse. As to the method:
Mice were treated or not treated topically on their shaven abdomens with acetone (vehicle only) or TPA (10 nmol in 200 μl acetone/site) for 6 h or treated first with TPA for 10 min, then with the indicated concentrations of BrD1 for 6 h. Mice were killed by cervical dislocation. Abdominal skin tissues were collected, fixed with formalin buffer and embedded in paraffin. Tissue sections ([…]) were cut and laid onto silanized glass slides and deparaffinized three times with xylene for 5 min each prior to rehydration using a graded alcohol bath. For hematoxyline and eosin staining, the sections were stained with hematoxyline and eosin staining. For immunohistochemical staining, the deparaffinized sections were boiled in 10 mM citrate buffer (pH 6.0) for 10 min for antigen retrieval and rinsed with PBS containing 0.05% Tween-20 buffer for 5 min. The sections were treated with 3% hydrogen peroxide in methanol for 15 min to decrease non-specific binding. […] Subsequently, peroxidase-binding sites were determined by staining with 3,3′-diaminobenzidine tetrahydrochloride (Dako). […]
Since increased vascular permeability is one of factors contributing to the formation of edema, we next evaluated whether BrD1 inhibited formation of edema in TPA-induced inflammation by examining H&E-stained longitudinal sections of skin samples.

Experiment [2] relates to IκBα. The experiment can be described thus: TPA-stimulated IκBα phosphorylation in mouse skin, western blot. In kind it is in vivo. To be noted: topical for 2 h after TPA. As to the method:
Shaven abdominal skins of female C57BL/6JNarl mice were not treated or topically treated with vehicle (acetone, 200 μl/site) or TPA (10 nmol in 200 μl acetone/site) at indicated time points or treated first with TPA for 10 min, then with the indicated concentrations of BrD1 at the indicated time points. Abdominal skin samples were collected, homogenated and lysed to prepare total proteins. Protein samples were subsequently resolved by SDS-PAGE using a gradient gel. The resolved proteins were transferred to a PVDF Immobilon-P membrane (Millipore, Bedford, Calif.), and the membrane was blocked with 5% non-fat dry milk in PBST buffer (phosphate-buffered saline (PBS) containing 0.1% Tween 20) for 60 minutes at room temperature. The membranes were incubated overnight at 4° C. with commercially available antibodies (1:1000 dilutions). Loading of equal amounts of protein was assessed using mouse β-actin. The blots were rinsed three times with PBST buffer for 5 minutes. Washed blots were incubated with HRP-conjugated secondary antibody (1:100,000 dilution), then washed again three times with PBST buffer. […] Quantification of bands was performed using Image J software.
We therefore evaluated whether BrD1 could interfere with TPA-induced activation of Akt and Erk in inflamed skin. […] We thus determined the phosphorylation level of Akt, Erk, NF-κB and IκBα in skins subjected to different treatments. […]

For experiment [3], the system named is abdominal skins of female C57BL/6 mice. The experiment is described as follows: TPA-induced vascular permeability assay (Evans blue extravasation). In kind it is in vivo, mouse. To be noted: Evans blue OD 620 nm. As to the method:
TPA-induced vascular permeability assay was modified and performed as previously described (Thurston G, Suri C, Smith K, McClain J, Sato T N, Yancopoulos G D, McDonald D M. Science 1999, 286:2511-2514). Shaved abdominal skins of female C57BL/6JNarl mice were topically treated with vehicle (acetone, 200 μl/site) or TPA (10 nmol in 200 μl acetone/site) for 6 h or treated with TPA for 10 min and subsequently treated for 6 h with the indicated concentrations of BrD1. Abdominal skins of untreated mice were used as the control group. One percent Evans blue dye (100 μl) was injected into mouse tail veins. After 20 min, anatomical appearances of mouse abdomens from the various treatments were photographically recorded. Abdominal skins representative of each test group were removed, turned over and photographed. Evans blue dye extravasated into the skins was extracted by incubation of the skin samples in 99% N,N-dimethyl-formamide overnight at 60° C. and optical density was measured at 620 nm.
Acute inflammatory reactions are known to include changes in vascular permeability, edema and cellular infiltration (Rao T S, Currie J L, Shaffer A F, Isakson P C. Inflammation 1993, 17:723-741). In order to evaluate the anti-inflammatory effect of BrD1 on TPA-induced dermatitis in a murine model, we initially evaluated the possible inhibitory effect of BrD1 on TPA-induced vascular permeability. […]

On to `CCCC(=O)O[C@H]1C/C(C)=C\[C@@H]2OC(=O)[C@]3(C)O[C@]23[C@@H](OC(C)=O)[C@H]2[C@@H](C)[C@@H](O)C[C@H](OC(C)=O)[C@]2(C)[C@H]1OC(C)=O` [BrD1, excavatolide B], for which the “skin thickness (TPA-induced edema)” value in experiment [1] was “substantially decreased the skin thickness”; in experiment [1] (listed as excavatolide B) it was “substantially decreases the skin thickness”. Further, the “TPA-stimulated phosphorylation of IκBα” value in experiment [2] is “significantly inhibited the TPA-stimulated phosphorylation of Akt and IκBα”; in experiment [2] (listed as excavatolide B) it was “significantly inhibits the TPA-stimulated phosphorylation of Akt and IκBα”. Besides, the “level of inhibition of TPA-induced vascular permeability” value in experiment [3] (0.5 mg/site topical for 6 h after TPA (10 nmol) 10 min) is recorded as “approximately 58%”; in experiment [3] (1 mg/site topical for 6 h after TPA (10 nmol) 10 min) it was roughly 77%.
